Measured values as given in patent US9283222B2 (priority 2006, dated 2016).
pKi: −log10 of the molar value.

Target: Recombinant Human Poly(ADP-Ribose) Polymerase (PARP), PARP-1 (Homo sapiens (Human), UniProt P09874)
Details: read-out: PARP-1 (Ki); Table 1; text calls the values EC50s

Chain of Recombinant Human Poly(ADP-Ribose) Polymerase (PARP), PARP-1 (P09874 whole entry): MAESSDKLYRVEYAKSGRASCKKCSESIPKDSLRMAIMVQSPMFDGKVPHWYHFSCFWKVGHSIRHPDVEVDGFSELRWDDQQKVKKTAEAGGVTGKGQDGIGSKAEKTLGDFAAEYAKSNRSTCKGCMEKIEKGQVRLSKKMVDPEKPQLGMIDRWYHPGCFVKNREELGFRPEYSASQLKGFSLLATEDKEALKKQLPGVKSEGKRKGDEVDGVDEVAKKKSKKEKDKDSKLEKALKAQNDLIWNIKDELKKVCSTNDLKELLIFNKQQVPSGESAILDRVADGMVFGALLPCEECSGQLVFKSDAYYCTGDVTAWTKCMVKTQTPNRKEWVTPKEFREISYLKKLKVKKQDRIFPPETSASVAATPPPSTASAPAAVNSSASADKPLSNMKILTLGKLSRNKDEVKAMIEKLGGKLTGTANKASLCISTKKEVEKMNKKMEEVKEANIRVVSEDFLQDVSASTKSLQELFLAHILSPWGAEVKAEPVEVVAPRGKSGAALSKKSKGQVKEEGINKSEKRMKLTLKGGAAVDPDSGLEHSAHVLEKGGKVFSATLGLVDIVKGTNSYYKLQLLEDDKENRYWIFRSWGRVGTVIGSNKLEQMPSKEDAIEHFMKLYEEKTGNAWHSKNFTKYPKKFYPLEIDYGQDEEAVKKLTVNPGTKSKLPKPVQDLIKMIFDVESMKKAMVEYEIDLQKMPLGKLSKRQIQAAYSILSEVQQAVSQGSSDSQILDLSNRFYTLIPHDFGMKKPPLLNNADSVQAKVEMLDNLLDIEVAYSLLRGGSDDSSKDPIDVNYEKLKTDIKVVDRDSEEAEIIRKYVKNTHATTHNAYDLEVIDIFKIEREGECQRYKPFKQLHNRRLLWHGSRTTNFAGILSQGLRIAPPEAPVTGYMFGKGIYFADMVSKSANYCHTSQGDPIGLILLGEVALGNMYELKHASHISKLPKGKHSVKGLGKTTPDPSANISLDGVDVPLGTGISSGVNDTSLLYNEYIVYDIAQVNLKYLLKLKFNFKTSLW

SMILES | pKi
O=C(Nc1cccc(Cc2n[nH]c(=O)c3c2CCCC3)c1)c1cc(F)cc(F)c1 [Example 184, 3,5-difluoro-N-(3-((4-oxo-3,4,5,6,7,8-hexahydrophthalazin-1-yl)methyl)phenyl)benzamide] | 6.81
CCCc1ccc(C(=O)Nc2cccc(Cc3n[nH]c(=O)c4c3CCCC4)c2)cc1 [Example 185, N-(3-((4-oxo-3,4,5,6,7,8-hexahydrophthalazin-1-yl)methyl)phenyl)-4-propylbenzamide] | 6.60
CC(C)c1ccc(C(=O)Nc2cccc(Cc3n[nH]c(=O)c4c3CCCC4)c2)cc1 [Example 186, 4-isopropyl-N-(3-((4-oxo-3,4,5,6,7,8-hexahydrophthalazin-1-yl)methyl)phenyl)benzamide] | 6.80
CCOc1ccccc1C(=O)Nc1cccc(Cc2n[nH]c(=O)c3c2CCCC3)c1 [Example 187, 2-ethoxy-N-(3-((4-oxo-3,4,5,6,7,8-hexahydrophthalazin-1-yl)methyl)phenyl)benzamide] | 5.90
CC(C)Oc1ccc(C(=O)Nc2cccc(Cc3n[nH]c(=O)c4c3CCCC4)c2)cc1 [Example 188, 4-isopropoxy-N-(3-((4-oxo-3,4,5,6,7,8-hexahydrophthalazin-1-yl)methyl)phenyl)benzamide] | 6.73
CCN(CC)c1ccc(C(=O)Nc2cccc(Cc3n[nH]c(=O)c4c3CCCC4)c2)cc1 [Example 189, 4-(diethylamino)-N-(3-((4-oxo-3,4,5,6,7,8-hexahydrophthalazin-1-yl)methyl)phenyl)benzamide] | 6.76
CCCCOc1ccc(C(=O)Nc2cccc(Cc3n[nH]c(=O)c4c3CCCC4)c2)cc1 [Example 190, 4-butoxy-N-(3-((4-oxo-3,4,5,6,7,8-hexahydrophthalazin-1-yl)methyl)phenyl)benzamide] | 6.58
O=C(Nc1cccc(Cc2n[nH]c(=O)c3c2CCCC3)c1)c1cc(C(F)(F)F)ccc1F [Example 191, 2-fluoro-N-(3-((4-oxo-3,4,5,6,7,8-hexahydrophthalazin-1-yl)methyl)phenyl)-5-(trifluoromethyl)benzamide] | 7.51
O=C(Nc1cccc(Cc2n[nH]c(=O)c3c2CCCC3)c1)c1ccco1 [Example 193, N-(3-((4-oxo-3,4,5,6,7,8-hexahydrophthalazin-1-yl)methyl)phenyl)-2-furamide] | 7.00
O=C(Nc1cccc(Cc2n[nH]c(=O)c3c2CCCC3)c1)c1ccoc1 [Example 194, N-(3-((4-oxo-3,4,5,6,7,8-hexahydrophthalazin-1-yl)methyl)phenyl)-3-furamide] | 7.21
Cc1cc(C(=O)Nc2cccc(Cc3n[nH]c(=O)c4c3CCCC4)c2)c(C)o1 [Example 195, 2,5-dimethyl-N-(3-((4-oxo-3,4,5,6,7,8-hexahydrophthalazin-1-yl)methyl)phenyl)-3-furamide] | 6.75
O=C(Nc1cccc(Cc2n[nH]c(=O)c3c2CCCC3)c1)c1cccs1 [Example 196, N-(3-((4-oxo-3,4,5,6,7,8-hexahydrophthalazin-1-yl)methyl)phenyl)thiophene-2-carboxamide] | 6.54
O=C(Nc1cccc(Cc2n[nH]c(=O)c3c2CCCC3)c1)c1ccsc1 [Example 197, N-(3-((4-oxo-3,4,5,6,7,8-hexahydrophthalazin-1-yl)methyl)phenyl)thiophene-3-carboxamide] | 6.84
Cc1ccsc1C(=O)Nc1cccc(Cc2n[nH]c(=O)c3c2CCCC3)c1 [Example 198, 3-methyl-N-(3-((4-oxo-3,4,5,6,7,8-hexahydrophthalazin-1-yl)methyl)phenyl)thiophene-2-carboxamide] | 6.39
Cc1ccc(C(=O)Nc2cccc(Cc3n[nH]c(=O)c4c3CCCC4)c2)s1 [Example 199, 5-methyl-N-(3-((4-oxo-3,4,5,6,7,8-hexahydrophthalazin-1-yl)methyl)phenyl)thiophene-2-carboxamide] | 6.71
O=C(Nc1cccc(Cc2n[nH]c(=O)c3c2CCCC3)c1)c1ccc[nH]1 [Example 200] | 6.80
